# Laboratory results from patent publication US20120077683A1, “KIT AND METHOD FOR PREDICTING CYTARABINE SENSITIVY OF PATIENT HAVING ACUTE MYELOID LEUKEMIA” (SAMSUNG ELECTRONICS CO., LTD., priority 2010, published 2012).
# Tests used:
# [1] = tested on: patients having acute myeloid leukemia; assay: Cytarabine therapy of patients having acute myeloid leukemia, complete remission determined from number of leukocytes; assay type: in vivo, human; settings: of 139 patients with acute myeloid leukemia, cytarabine administered according to NCCN guidelines
# Method: Cytarabine sensitivity of 139 patients who had acute myeloid leukemia and were treated in Samsung Medical Center was identified. That is, cytarabine was administered to the patients according to NCCN guidelines, and the number of leukocytes was subsequently measured in each patient to determine complete remission to determine whether the cytarabine therapy was effective for the patient. The patients were then classified into one group of 121 patients having cytarabine sensitivity (responders) and the other group of 18 patients not having cytarabine sensitivity (nonresponders). In addition, blood of the patients was obtained to extract DNA by using QIAamp DNA Mini and blood Mini kits in order to determine SNPs associated with cytarabine sensitivity of the patients.
# [2] = tested on: patients having acute myeloid leukemia; settings: stated as known; cited from earlier work
structure (smiles),measurement,setting,value
"Nc1ccn([C@@H]2O[C@H](CO)[C@@H](O)[C@@H]2O)c(=O)n1 [cytarabine, cytosine arabinoside]",patients having cytarabine sensitivity (responders),[1],121 patients
same,patients not having cytarabine sensitivity (nonresponders),[1],18 patients
same,patients having acute myeloid leukemia on whom administration of cytarabine is not effective,[2],about 20%
